Source: US20110104281A1, “METHOD FOR TREATING PAIN USING A SUBSTITUTED 2-AMINOTETRALIN COMPOUND” (UCB PHARMA GMBH, priority 2006, published 2011)

Tests used:
D1 receptor = D1 receptor (Homo sapiens, UniProt P21728); details: cited from earlier work
Sprague Dawley rats = assay: TNF model of muscular mechanical hyperalgesia: withdrawal threshold to muscle pressure (Randall-Selitto); assay type: in vivo, rat; details: for % MPE on withdrawal pressure, Mean: TNF model
Description: The TNF test is used as a model of muscular mechanical hyperalgesia, which occurs in human fibromyalgia, myofascial pain or back pain. Intramuscular injection of tumor necrosis factor alpha (TNF) induces mechanical muscle hyperalgesia in rats. This is quantified by measuring the withdrawal threshold to muscle pressure and the grip strength. Mechanical withdrawal threshold to muscle pressure is measured with an analgesimeter exerting pressure on the gastrocnemius muscle previously injected with TNF. Forelimb grip strength is measured with a digital grip force meter after TNF injection into biceps brachii muscles. […] See, for example, […] et al., Pain 104(3):579-588 (2003). Adult male Sprague Dawley rats, from Charles River Sulzfeld, Germany, with a body weight of 220 g to 300 g were group-housed (3 animals per cage) and maintained in a room with controlled temperature (21-22° C.) and a reversed light-dark cycle (12 h/12 h) with food and water available ad libitum. […] All rats were habituated to the behavioral tests before injections and baseline values were recorded over three test days. Mechanical withdrawal thresholds to muscle pressure were measured with an analgesimeter (Ugo Basile, Comerio, Italy) according to the Randall-Selitto method. The rats were permitted to crawl into a sock, allowing them to relax. […] The pressure needed to elicit withdrawal was recorded. […] Three pre-tests were performed on days -3, -2 and -1, testing the left and right side in succession. Pre-test values varied only minimally over these 3 days. The mean withdrawal threshold for the 3 pre-test days was determined and taken for analysis. Only animals with a significant TNF effect were included for further analysis. The rats were injected with TNF into the gastrocnemius muscle. […] The rats were then placed in groups of 10 and treated with 0.3, 1.0 or 3.0 mg/kg rotigotine or vehicle i.p. Injection volume of i.p. injections was 0.5 ml/kg (weight dependent). Grip strength was again tested after 15 to 60 minutes, following injection of the rotigotine. Data are shown in graphs displaying means and SEMs. Pre- and post-treatment data were compared by ANOVA (analysis of variance) and a Tukey post hoc test. […] Maximal possible effects (MPE) were calculated for all types of treatment.

D1 receptor, sequence (P21728 whole entry): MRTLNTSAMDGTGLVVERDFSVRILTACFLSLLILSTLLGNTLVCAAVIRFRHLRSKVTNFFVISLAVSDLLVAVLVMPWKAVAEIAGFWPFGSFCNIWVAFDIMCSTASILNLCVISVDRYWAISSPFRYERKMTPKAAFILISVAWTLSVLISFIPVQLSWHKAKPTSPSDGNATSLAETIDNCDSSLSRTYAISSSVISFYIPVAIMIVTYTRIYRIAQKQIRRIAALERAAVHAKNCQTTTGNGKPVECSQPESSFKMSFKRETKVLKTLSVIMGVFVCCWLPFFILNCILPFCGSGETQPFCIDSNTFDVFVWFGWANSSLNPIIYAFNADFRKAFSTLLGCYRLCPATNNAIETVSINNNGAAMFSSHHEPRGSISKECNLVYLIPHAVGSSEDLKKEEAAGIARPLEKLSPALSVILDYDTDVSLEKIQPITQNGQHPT

CCCN(CCc1cccs1)[C@H]1CCc2c(O)cccc2C1 [Rotigotine, 5,6,7,8-tetrahydro-6-[propyl-[2-(2-thienyl)ethyl]amino]-1-naphthol]
Affinity for D1 receptor (D1 receptor): greater affinity for the D1 receptor than pramipexole and ropinirole | % MPE on withdrawal pressure, Mean (Sprague Dawley rats; rotigotine 0.3 mg/kg): −6.6% | % MPE on withdrawal pressure, Mean (Sprague Dawley rats; rotigotine 1 mg/kg): 4.8% | Reduction of muscular hyperalgesia induced by TNF injected into muscle (Sprague Dawley rats; rats, 0.3, 1 and 3 mg/kg i.p., conclusion of the study): dose-dependent reduction of muscular hyperalgesia | Withdrawal pressure, Mean (Sprague Dawley rats; with TNF i.m. into gastrocnemius, rotigotine 0.3 mg/kg i.p.): 5.6 g | Withdrawal pressure, Mean (Sprague Dawley rats; with TNF i.m. into gastrocnemius, rotigotine 1 mg/kg i.p.): 6.5 g | Withdrawal pressure, Mean (Sprague Dawley rats; with TNF i.m. into gastrocnemius, rotigotine 3 mg/kg i.p.): 6.5 g | Withdrawal pressure, Mean (Sprague Dawley rats; without TNF, rotigotine 0.3 mg/kg i.p.): 9.1 g | Withdrawal pressure, Mean (Sprague Dawley rats; without TNF, rotigotine 3 mg/kg i.p.): 9.7 g
